Tests used:
[1] = test system: AQ production in PA14; experiment: Alkylquinolone (HHQ, PQS, HQNO) production by LC-MS/MS, PA14; assay type: cell-based, Pseudomonas aeruginosa; conditions: 3x IC50, 16 h, culture supernatant
Experimental: (§1) HQNO, can protect Staphylococcus aureus from vancomycin [31] and contributes to the environmental competitiveness of P. aeruginosa, through its activity as a potent inhibitor of the cytochrome bc1 complex. […] LC-MS/MS was used to quantify the major AQs HHQ, PQS and HQNO after incubation of the P. aeruginosa strains with the hit compounds, for 16 h. The assay was performed using both PAO1-L and PA14 strains which were treated with PqsR antagonists at concentrations three-fold higher than their IC50 values. The results obtained depended on the inhibitor and strain tested (Figure 5).
(§2) For each test sample, 100 µL of sterile filtered supernatant (the same preparation as for pyocyanin) was spiked with 10 µL of an internal standard solution (10 µM d4-PQS in MeOH), and diluted with water, to a total volume of 500 µL. Samples were then extracted three times with an 0.5 mL aliquot of ethyl acetate, vortex mixing the aqueous/organic mix for 2 min, then removing the organic phase once the layers had successfully partitioned. For each sample, the combined organic extracts were dried under vacuum and re-dissolved in 100 µL MeOH prior to analysis. For the LC-MS/MS analysis of supernatant extracts, the chromatography was achieved using a Shimadzu series 10AD VP LC system (Columbia, MD, USA). The LC column, maintained at 40 °C, was a Phenomenex Gemini C18 (3.0 µm, 100 × 3.0 mm) (Macclesfield, Cheshire, UK) with an appropriate guard column. Mobile phase A was 0.1% (v/v) formic acid in water containing 2 mM 2-picolinic acid, and mobile phase B 0.1% (v/v) formic acid in methanol. The flow rate throughout the chromatographic separation was 450 µL/min. After an injection of a 2 µL/sample, a binary gradient, beginning initially at 30% B, increased linearly to 99% B over 5 min. The composition remained at 99% B for 3 min, decreased to 30% B over 1 min, and stayed at this composition for 4 min, to allow for column equilibration. […] Where chromatographic peaks for HHQ, HQNO and PQS were detected, a peak area was determined, and analyte peak area/internal standard peak area calculated.

[2] = Plasma stability, human; assay type: in vitro ADME; conditions: 37 °C; for half-life at 1 µM: human, plasma, up to 2 h, read-out: Plasma Stability Human t 1/2
Experimental: Dilutions of a 10 mM test compound DMSO stock solution were prepared so that the final DMSO concentration was 1% v/v and the final test compound concentration tested was 1 µM. Following the addition of the test compound to plasma, the samples were pre-incubated for 10 min prior to the start of the incubation by the addition of the test compound. The test compound was incubated (n = 2; 1 µM final concentration) at 37 °C with plasma for up to 2 h. Aliquots were sampled at several time points and mixed with acetonitrile (containing internal standard) to terminate the reaction and precipitate the proteins. All the samples were mixed, centrifuged and the supernatants analysed by UPLC-MSMS. Parent disappearance and half-life (t 1/2) values were determined from the slope of the parent depletion curve. Control compounds (imidapril, enalapril, tenofovir and/or propantheline), were respectively included.

[3] = test system: AQ production in PAO1-L; experiment: Alkylquinolone (HHQ, PQS, HQNO) production by LC-MS/MS, PAO1-L; assay type: cell-based, Pseudomonas aeruginosa; conditions: 3x IC50, 16 h, culture supernatant
Experimental: as §1, §2

[4] = Hepatic microsomal stability, rat; assay type: in vitro ADME; conditions: liver microsomes, pH 7.4, 0.5 mg/mL protein, NADPH, 37 °C; for microsomal CLint at 1 µM: read-out: Microsomal Stability Rat Clint (intrinsic clearance); for half-life at 1 µM: read-out: Microsomal Stability Rat t1/2
Experimental: Dilutions of a 1 mM test compound DMSO stock solution were prepared in buffer (typically 0.01 M phosphate buffered saline (pH 7.4) so that the final DMSO concentration was 0.1% v/v and the final test compound concentration tested was 1 µM. Following addition of protein (0.5 mg/mL final) and NADPH, the samples were pre-incubated for 10 min prior to the start of the incubation by the addition of test compound. The test compounds were then incubated (n = 2; 1 µM final concentration) at 37 °C with tissue microsomes. Aliquots were sampled at several time points and mixed with acetonitrile (containing internal standard) to terminate the reaction and precipitate the proteins. All the samples were mixed, centrifuged and the supernatants analysed by UPLC-MS/MS. The intrinsic clearance (Clint) and half-life (t 1/2) values were determined from the slope of the parent depletion curve. Control compounds for low, moderate and high intrinsic clearance, respectively, for both human and rat microsomes, were included.

Compound	Inhibition of AQ production (in words), PA14 [1]	Plasma stability (in words), human plasma ([2]; 1 µM)	half-life at 1 µM [2] [min]	Inhibition of AQ production (in words), PAO1-L [3]	microsomal CLint at 1 µM [4] [µL/min/mg]	half-life at 1 µM [4] [min]
O=CN1N=C(c2ccccc2)CC1c1cccc(Nc2ccnc3cc(Cl)ccc23)c1 (centres unmarked) [Ia]	strongly-inhibited AQ production	greatest plasma stability	132	strongly-inhibited AQ production	122	11.5
CC(=O)N1N=C(c2ccccc2)CC1c1cccc(Nc2ccnc3cc(Cl)ccc23)c1 (centres unmarked) [IIa]	moderate effect		73.8	moderate effect	87.8	15.8
